No end group written: not given here.
Test system: sera from tuberculosis patients
Test: ELISA recognition of synthetic MTP40 peptides by human sera
Assay type: binding
Details: sera from active tuberculosis patients having B(+) sputum; peptide coated at 3 micrograms per well

WLKLGLVEFGGVAKLNAEVMS [S698, synthetic peptide derived from M. tuberculosis MTP40 protein]
percentage of sera recognizing the peptide (ELISA): 20.8%
